Assay results reported in PMC6539231, “4,5-Diaryl 3(2H)Furanones: Anti-Inflammatory Activity and Influence on Cancer Growth” (Molecules, 2019).
Entries after “also recorded” stand apart in the source; their conditions may differ. Read-outs that look alike come from different tables or passages of the source.

Experiments:
[1] = test system: carrageenan mice paw oedema; assay: Carrageenin-induced mouse paw edema; assay type: in vivo, mice (AKR); conditions: for inhibition in vivo at 0.1 µmol/g: Mus musculus, ip, read-out: CPE, %; for anti-inflammatory activity, reference compounds: dose not given
Procedure: From the data of Table 7 it is obvious that anti-inflammatory activity of alkylsulfones and sulfoxides of furan-3(2H)-ones, including annelated derivatives are very similar.
The anti-inflammatory activity of compounds was performed using the carrageenan mice paw oedema assay. Animal of both sex (AKR), with exception of pregnant females were housed under standard conditions, receiving only water during the experimental period. […] The detailed description of the whole experiment reported previously. All the biological experiments were carried out in full compliance with the European Convention for the Protection of Vertebrate Animals used for Experimental or Other Scientific Purposes (ETS NO 123, Strasbourg, 03/18/1986): Strasbourg (France). European Treaty Series, № 123, March 18, 1986. 11 P. The project identification code and date of approval is 350880/3468 of 15-12-2014, University of Thessaloniki.

ovine COX-1 = biological target: T1, ovine COX-1 (Ovis aries, UniProt P05979); assay: In vitro COX-1 inhibition (Cayman COX Inhibitor Screening Assay kit); assay type: biochemical; conditions: for % Inhibition (COX-1): Compound concentration 50 μΜ, arachidonic acid 0.1 μM; for IC50: read-out: Experimental IC50 COX-1
T1 construct: purchased Cayman Chemical Co., Ann Arbor, MI, USA
T1 sequence (P05979 25-600): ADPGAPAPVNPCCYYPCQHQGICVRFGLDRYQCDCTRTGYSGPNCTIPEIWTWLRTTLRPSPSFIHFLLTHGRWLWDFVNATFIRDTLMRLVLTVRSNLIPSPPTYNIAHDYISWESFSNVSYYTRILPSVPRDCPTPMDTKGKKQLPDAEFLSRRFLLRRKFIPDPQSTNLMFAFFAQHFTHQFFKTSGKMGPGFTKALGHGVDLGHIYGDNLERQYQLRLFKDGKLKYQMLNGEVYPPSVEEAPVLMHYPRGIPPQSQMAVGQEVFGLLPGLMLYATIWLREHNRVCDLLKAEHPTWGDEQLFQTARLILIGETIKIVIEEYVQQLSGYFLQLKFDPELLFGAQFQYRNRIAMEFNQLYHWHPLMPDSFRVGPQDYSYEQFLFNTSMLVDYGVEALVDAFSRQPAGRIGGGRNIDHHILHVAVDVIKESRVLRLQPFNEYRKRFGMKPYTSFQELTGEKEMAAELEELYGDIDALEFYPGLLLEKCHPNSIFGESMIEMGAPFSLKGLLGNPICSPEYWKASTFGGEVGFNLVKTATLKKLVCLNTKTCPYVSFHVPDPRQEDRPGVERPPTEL
Procedure: (§1) The COX-1 and COX-2 activities of the compounds were measured using ovine COX-1 and human recombinant COX-2 enzymes included in the “COX Inhibitor Screening Assay” kit provided by Cayman (Cayman Chemical Co., Ann Arbor, MI, USA) as reported previously

human recombinant COX-2 = biological target: T2, human recombinant COX-2 (Homo sapiens, UniProt P35354); assay: In vitro COX-2 inhibition (Cayman COX Inhibitor Screening Assay kit); assay type: biochemical; conditions: for % Inhibition (COX-2): Compound concentration 50 μΜ, arachidonic acid 0.1 μM; for IC50: read-out: Experimental IC50 COX-2
T2 construct: purchased Cayman Chemical Co., Ann Arbor, MI, USA
T2 sequence (P35354 18-604): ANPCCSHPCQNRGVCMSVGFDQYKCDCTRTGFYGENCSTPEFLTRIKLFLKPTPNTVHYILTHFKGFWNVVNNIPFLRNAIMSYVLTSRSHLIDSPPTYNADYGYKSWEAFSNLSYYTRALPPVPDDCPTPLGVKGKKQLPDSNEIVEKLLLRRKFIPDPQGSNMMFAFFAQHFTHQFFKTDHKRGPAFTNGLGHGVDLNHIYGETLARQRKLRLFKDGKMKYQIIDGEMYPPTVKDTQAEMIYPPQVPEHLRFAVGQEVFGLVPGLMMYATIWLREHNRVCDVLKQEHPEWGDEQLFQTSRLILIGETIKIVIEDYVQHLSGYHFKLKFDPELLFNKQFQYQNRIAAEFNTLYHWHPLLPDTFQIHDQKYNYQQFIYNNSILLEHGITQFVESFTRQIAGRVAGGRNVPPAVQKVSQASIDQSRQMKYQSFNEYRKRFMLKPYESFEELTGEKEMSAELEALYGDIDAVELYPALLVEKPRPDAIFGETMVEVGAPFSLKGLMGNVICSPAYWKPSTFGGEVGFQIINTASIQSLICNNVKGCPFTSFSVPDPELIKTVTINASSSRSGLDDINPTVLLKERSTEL
Procedure: as §1

MCF-7 cells [2] = assay: Growth inhibition assay, MCF-7 cells; assay type: cell-based, human; conditions: 48 h exposure
Procedure: (§2) The cells were grown in the presence of each of the selected compounds as well as of the two well-known anti-neoplastic drugs gefitinib and 5-fluorouracil.
(§3) Each cell culture was treated appropriately, ensuring that DMSO concentration was kept below ≤ 0.2% (v/v) after every dilution. Cells were seeded in 24-well plates, at an initial density of 5 × 10^4 cells/mL. […] Cells were allowed to grow for additional 48 h before being harvested by trypsinization and subsequently counted (cell density; number of cells/mL) using a hemocytometer (Neubauer counting chamber) and optical microscopy. Cell growth was expressed as a percentage relative to that for the untreated control culture (only cells and medium, CTL).

MCF-7 cells [3] = assay: Combination (synergy) growth assay in MCF-7 cells, Combination Index; assay type: cell-based, human; conditions: MCF-7, 48 h; for Combination Effect with 5-fluorouracil / CI, combination with 5-fluorouracil: + 0.3 μM 5-fu; for % Cell Growth, combination with 5-fluorouracil: + 0.3 μM 5-fu (21.3 μM 1h, 2.9 μM 1g, 3.8 μM x-1, 29 μM cel); for CI, combination with 5-fluorouracil / CI, combination with gefitinib: CI <1 synergy, >1 antagonism; for Combination Effect with gefitinib / CI, combination with gefitinib: + 70 μM gef; for % Cell Growth, combination with gefitinib: + 70 μM gef (27.5 μM 1h, 10 μM 1g, 10 μM x-1, 29 μM cel)
Procedure: In addition, exposure of the MCF-7 cells to each of the compounds in combination with each one of the two anti-neoplastic drugs was performed in order to study the synergistic effect of the compounds. The results are shown in Table 9 and Figure 5 and Figure 6.

MCF-7 cells [4] = assay: as above; assay type: cell-based, human; conditions: MCF-7, 48 h
HSC-3 cells = assay: Growth inhibition assay, HSC-3 cells
Procedure: as §2, §3

[5] = Dose 0.1 µmol/g, intraperitoneally, simultaneously with carrageenin

C[S+]([O-])c1ccc(C2=C(c3ccccc3)OC(C)(C)C2=O)cc1 (stereo not drawn) [1b, 2,2-Dimethyl-4-[4′-(methylsulfinyl)phenyl]-5-phenylfuran-3(2H)-one]
inhibition in vivo at 0.1 µmol/g [1, 5]: 47%

CC1(C)OC(c2ccccc2)=C(c2ccc(S(C)(=O)=O)cc2)C1=O [1c, 2,2-Dimethyl-4-[4′-(methylsulfonyl)phenyl]-5-phenylfuran-3(2H)-one]
% Inhibition (COX-1) (ovine COX-1): 0% | % Inhibition (COX-2) (human recombinant COX-2): 0% | inhibition in vivo at 0.1 µmol/g [1, 5]: 50.2%

C[S+]([O-])c1ccc(C2=C(c3ccc(Cl)cc3)OC(C)(C)C2=O)cc1 (stereo not drawn) [1j]
% Inhibition (COX-1) (ovine COX-1): 0% | % Inhibition (COX-2) (human recombinant COX-2): 0% | inhibition in vivo at 0.1 µmol/g [1, 5]: 54%

CC1(C)OC(c2ccc(Cl)cc2)=C(c2ccc(S(C)(=O)=O)cc2)C1=O [1k, 5-(4′-Chlorophenyl)-2,2-dimethyl-4-[4′-(methylsulfonyl)phenyl]-furan-3(2H)-one]
% Inhibition (COX-1) (ovine COX-1): 80% | IC50 (ovine COX-1): 29 µM | % Inhibition (COX-2) (human recombinant COX-2): 6% | IC50 (human recombinant COX-2): > 50 µM | inhibition in vivo at 0.1 µmol/g [1, 5]: 50.6% | melting point: 223 to 225 °C

C[S+]([O-])c1ccc(C2=C(c3cccc(Cl)c3)OC(C)(C)C2=O)cc1 (stereo not drawn) [1n, 5-(3′-Chlorophenyl)-2,2-dimethyl-4-[4′-(methylsulfinyl)phenyl]-furan-3(2H)-one]
inhibition in vivo at 0.1 µmol/g [1, 5]: 51%

CC1(C)OC(c2cccc(Cl)c2)=C(c2ccc(S(C)(=O)=O)cc2)C1=O [1o, 5-(3′-Chlorophenyl)-2,2-dimethyl-4-[4′-(methylsulfonyl)phenyl]-furan-3(2H)-one]
IC50 (ovine COX-1): 22 µM | IC50 (human recombinant COX-2): 71 µM | inhibition in vivo at 0.1 µmol/g [1, 5]: 50.7% | melting point: 219 to 221 °C

CC1(C)OC(c2ccccc2)=C(c2ccc(S(N)(=O)=O)cc2)C1=O [1q, 5-(4′-Phenyl)-2,2-dimethyl-4-[4′-(aminosulfonyl)phenyl]-furan-3(2H)-one]
inhibition in vivo at 0.1 µmol/g [1, 5]: 38% | melting point: 158 to 160 °C

CC1(C)OC(c2cccc(Cl)c2)=C(c2ccc(S(N)(=O)=O)cc2)C1=O [1u, 5-(3′-Chlorophenyl)-2,2-dimethyl-4-[4′-(aminosulfonyl)phenyl]-furan-3(2H)-one]
melting point: 198 to 200 °C

CC1(C)OC(c2ccc(Cl)cc2)=C(c2ccc(S(N)(=O)=O)cc2)C1=O [1v, 5-(4′-Chlorophenyl)-2,2-dimethyl-4-[4′-(aminosulfonyl)phenyl]-furan-3(2H)-one]
IC50 (ovine COX-1): 28 µM | IC50 (human recombinant COX-2): 20 µM | inhibition in vivo at 0.1 µmol/g [1, 5]: 44.3% | melting point: 224 to 225 °C

CNS(=O)(=O)c1ccc(C2=C(c3ccc(Cl)cc3)OC(C)(C)C2=O)cc1 [1vMe, 5-(4′-Chlorophenyl)-2,2-dimethyl-4-[4′-(methylaminosulfonyl)phenyl]-furan-3(2H)-one]
melting point: 204 to 205 °C

CC1(C)OC(c2ccc(F)cc2)=C(c2ccc(S(N)(=O)=O)cc2)C1=O [1w, 5-(4′-Fluorophenyl)-2,2-dimethyl-4-[4′-(aminosulfonyl)phenyl]-furan-3(2H)-one]
IC50 (ovine COX-1): 70 µM | IC50 (human recombinant COX-2): > 50 µM | inhibition in vivo at 0.1 µmol/g [1, 5]: 43.7% | melting point: 167 to 169 °C

O=c1[nH]cc(F)c(=O)[nH]1 [5-Fluorouracil, reference compound]
IC50 (MCF-7 cells [2]): 0.03 µM

Cc1ccc(-c2cc(C(F)(F)F)nn2-c2ccc(S(N)(=O)=O)cc2)cc1 [Celecoxib, reference compound]
anti-inflammatory activity, reference compounds [1]: 64.6% | IC50 (MCF-7 cells [2]): 29.2 µM | IC50 (MCF-7 cells [2]; Homo sapiens, MCF7, 48 h): 29.2 µM | Combination Effect with 5-fluorouracil (MCF-7 cells [3]): antagonism | % Cell Growth, combination with 5-fluorouracil (MCF-7 cells [3]): 49.3% | CI, combination with 5-fluorouracil (MCF-7 cells [3]): 1.57 | CI, combination with 5-fluorouracil (MCF-7 cells [3]; listed as cel): >1 | Combination Effect with gefitinib (MCF-7 cells [3]): antagonism | % Cell Growth, combination with gefitinib (MCF-7 cells [3]): 56.8% | CI, combination with gefitinib (MCF-7 cells [3]): 9.8 | CI, combination with gefitinib (MCF-7 cells [3]; listed as cel): >1

CC1(C)OC(c2ccc(S(C)(=O)=O)cc2)=C(c2ccccc2)C1=O [E-1, reference compound]
inhibition in vivo at 0.1 µmol/g [1, 5]: 57.7%

CC1(C)OC(c2ccc(S(C)(=O)=O)cc2)=C(c2cccc(Cl)c2)C1=O [E-3, reference compound]
inhibition in vivo at 0.1 µmol/g [1, 5]: 52.1%

COc1ccc2cc([C@H](C)C(=O)O)ccc2c1 [Naproxen, reference compound]
IC50 (human recombinant COX-2): 50 µM

COc1ccc2c(c1)c(CC(=O)O)c(C)n2C(=O)c1ccc(Cl)cc1 [indomethacin, reference compound]
anti-inflammatory activity, reference compounds [1]: 47%

CC1(C)Oc2c(c3ccc(S(C)(=O)=O)cc3c3ccccc23)C1=O [x-1, 2′,2′-dimethyl-3-(methylsulfonyl)-phenanthro[9,10-b]furan-3′(2′H)-one]
inhibition in vivo at 0.1 µmol/g [1]: 45% | IC50 (MCF-7 cells [2]; Homo sapiens, MCF7, 48 h): 10 µM | Combination Effect with 5-fluorouracil (MCF-7 cells [3]): antagonistic effect; also recorded: antagonism | % Cell Growth, combination with 5-fluorouracil (MCF-7 cells [3]): 21.0% | CI, combination with 5-fluorouracil (MCF-7 cells [3]): >1 | Combination Effect with gefitinib (MCF-7 cells [3]): synergism | % Cell Growth, combination with gefitinib (MCF-7 cells [3]): 24.3% | CI, combination with gefitinib (MCF-7 cells [3]): 0.260 ± 0.033 < 1 | CI, combination with gefitinib (MCF-7 cells [3]; listed as X-1): 0.260 | melting point: 222 to 224 °C | Combination Effect with celecoxib (MCF-7 cells [4]; + 29 μM cel): antagonism | % Cell Growth, combination with celecoxib (MCF-7 cells [4]; + 29 μM cel (21.3 μM 1h, 2.9 μM 1g, 3.8 μM x-1)): 60.6% | CI, combination with celecoxib (MCF-7 cells [4]; + 29 μM cel, CI <1 synergy, >1 antagonism): >1 | HSC-3 % Cell Growth (HSC-3 cells; Compound concentration: 10μΜ): 91 ± 10% | IC50 (HSC-3 cells; Homo sapiens, HSC-3, 48 h, read-out: HSC-3 IC50 Values): 60 µM

CC1(C)Oc2c(c3ccc(S(C)(=O)=O)cc3c3cc(F)ccc23)C1=O [x-2, 3-Fluoro-2′,2′-dimethyl-6-(methylsulfonyl)-phenanthro[9,10-b]furan-3′(2′H)-one]
inhibition in vivo at 0.1 µmol/g [1]: 40% | melting point: 242 to 244 °C
